{"source": "patent US20110028401A1", "about": "“CRIPTO BLOCKING MOLECULES AND THERAPEUTIC USES THEREOF” (CONSIGLIO NAZIONALE DELLE RICERCHE, priority 2009, published 2011)", "test_system": "R1 ESC", "test": "Dopaminergic differentiation of ESCs on PA6 stromal cells", "assay_type": "cell-based, mouse", "procedure": "For more specific dopaminergic differentiation, R1 ESC were plated on a confluent monolayer of mitomycin-C treated (2 hour, 20 ug/ml, Sigma) stromal PA6 cells (Riken Cell Bank) at a density of 100 cells/cm^2 and differentiated based on the methods of Barberi et al, 2003 with the following modifications, FIG. 7(a)^27. Cells were initially cultured in serum-replacement media (Dulbecco's modified Eagle medium with 15% serum replacement, 2 mM L-glutamine and 10 uM β-mercaptoethanol, Gibco-Invitrogen) containing Noggin (300 ng/ml, R&D Systems). After 5 days the media was replenished and supplemented with Noggin plus morphogens fibroblast growth factor-8 (FGF8, 100 ng/ml) and Sonic Hedgehog (Shh, 500 ng/ml), previously shown to be important in midbrain DA neuron development. At day 8, cultures were changed into N2 media (a 1:1 mixture of F12 and MEM with 15 mM HEPES buffer, 1 mM glutamine, 6 mg/ml glucose (Sigma-Aldrich), 3 mg/ml Albumax and N2 supplement (all purchased from Invitrogen)) supplemented with FGF2 (20 ng/ml), Shh, FGF8 and Wnt5a (previously shown to be important in the differentiation of dopaminergic precursors in vitro and in vivo^25, 56. Finally at day 11, cultures were exposed to survival factors brain derived neurotrophic factor (BDNF, 30 ng/ml), glial derived neurotrophic factor (GDNF, 30 ng/ml) and ascorbic acid (AA, 100 uM). In addition, peptides (Control peptide, CP; Dimer peptide, DP or Cripto Blocking peptide, Cripto BP, 12.5 uM) were added to the cultures from day 1-11. Peptides were replenished in the media every second day.\nHoescht counterstaining was used for visualization of all cells within the cultures. The proportion of neuron containing colonies (labeled for using the immature neuronal marker βIII-tubulin (Tuj1)) and the number of dopaminergic neurons/μm^2 colony (identified using a marker for the precursor enzyme in DA synthesis, TH) were counted. Differentiation experiments were performed in triplicate.\nThe authors next examined whether DA differentiation could be promoted. To this end, the authors used a DA differentiation protocol involving co-culturing on stromal cells^27, to which additional modifications were incorporated (FIG. 7a). In brief, ESCs were plated at low density onto stromal cells (PA6) for a period of 5 days, to promote neural induction. From day 0-8, cultures were treated with noggin to enhance neuronal induction. From day 8-11, cultures where changed into neuronal (N2) media in the presence of Shh and FGF-8 (for ventral midbrain patterning) and basic FGF (to expand the pool of DA precursors), as well as Wnt5a (involved in DA neuron differentiation in vitro and in vivo^25, 43). Control peptide (CP) or Cripto BP (BP) were added to the differentiating ESCs from day 1 to day 11. […]", "key": {"[1]": {"settings": "peptide 12.5 uM day 1-11, 14 days on PA6"}}}
{"compound": "C[S+]([O-])CCC(N)C(=O)N[C@@H](CSCc1ccccc1)C(=O)N[C@@H](CSCc1ccccc1)C(=O)N[C@@H](CCCCNC(=O)[C@H](CSCc1ccccc1)NC(=O)[C@H](CSCc1ccccc1)NC(=O)[C@@H](N)CC[S+](C)[O-])C(=O)N[C@@H](CCCCNC(=O)[C@H](CCCCNC(=O)[C@H](CSCc1ccccc1)NC(=O)[C@H](CSCc1ccccc1)NC(=O)[C@@H](N)CC[S+](C)[O-])NC(=O)[C@H](CSCc1ccccc1)NC(=O)[C@H](CSCc1ccccc1)NC(=O)[C@@H](N)CC[S+](C)[O-])C(=O)NCC(=O)O", "note": "(stereo partly shown) [Cripto BP]", "values": [{"measurement": "yield of DA neurons derived from wildtype ESCs", "setting": "Noggin and Wnt5a in conjunction with Cripto BP", "value": "enhanced further"}, {"measurement": "DA neurons per TH-ir colony", "setting": "peptide 12.5 uM day 1-11", "value": 286, "unit": "% greater than control"}, {"measurement": "colonies immunoreactive for βIII-tubulin", "setting": "[1]", "value": 91, "unit": "%"}, {"measurement": "proportion of colonies containing TH-ir DA neurons", "setting": "[1]", "value": 62, "unit": "%"}]}
